Experiments:
Format in all cases: in vivo
Amaranthus retroflexus = assay: Test Example 4: herbicidal effect by application to foliage (diluvial soil, plastic box); details: application to foliage, application herbicide amount 320 g/ha
Description: (§1) 5 Herbicidal ratio of 90% or more (almost completely withered) 4 Herbicidal ratio of 70% or more and less than 90% 3 Herbicidal ratio of 40% or more and less than 70% 2 Herbicidal ratio of 20% or more and less than 40% 1 Herbicidal ratio of 5% or more and less than 20% 0 Herbicidal ratio of 5% or less (almost no effect) [Test Example 4] Herbicidal Effect Test by Application to Foliage Sterilized diluvial soil was placed in a plastic box having a length of 21 cm, a width of 13 cm, and a depth of 7 cm. Each of the seeds of Digitaria ciliaris, Setaria viridis, Echinochloa crus-galli var. crus-galli, Avena fatua, Alopecurus myosuroides, Lolium multiflorum Lam., Apera spica-venti., Abutilon theophrasti, Amaranthus retroflexus, Chenopodium album, Stellaria media, Galium spurium, Veronica persica, Zea mays, Glycine max, Oryza sativa, Triticum aestivum, Beta vulgaris ssp. vulgaris, and Brassica campestris L. was sowed in a spot-like manner and was covered with the soil of about 1.5 cm thick. Thereafter, the plants were grown in the greenhouse of 25° C. to 30° C. After the plants were grown for 14 days, the emulsion agent containing the compound of the present invention prepared in accordance with Formulation Example 2 was diluted with water so as to be a predetermined herbicide amount and the diluted compound was uniformly applied to a stem and leaf part with a small-size spray. Three weeks after the herbicide application, effects on each plant were investigated in accordance with the criteria of Test Example 1. A: Echinochloa oryzicola Vasing., B: Scirpus juncoides, C: Monochoria vaginalis, D: Leptochloa chinensis, E: Cyperus difformis, F: Digitaria ciliaris, G: Setaria viridis, H: Echinochloa crus-galli var. crus-galli, I: Avena fatua, J: Alopecurus myosuroides, K: Lolium multiflorum Lam., L: Apera spica-venti., M: Abutilon theophrasti, N: Amaranthus retroflexus, O: Chenopodium album, P: Stellaria media, Q: Galium spurium, R: Veronica persica, a: transplanted Oryza sativa, b: directly sowed Oryza sativa, c: Zea mays, d: Glycine max, e: Triticum aestivum, f: Beta vulgaris ssp. vulgaris, and g: Brassica campestris L. The application herbicide amount (g/ha) means an amount that a concentration is adjusted so that, when an application amount is converted into per hectare (1 ha), the herbicide is applied by the number of grams (g) of the described value.

Abutilon theophrasti = assay: as above; details: application to foliage, application herbicide amount 320 g/ha
Description: as §1

Digitaria ciliaris = assay: as above; details: application to foliage, application herbicide amount 320 g/ha
Description: as §1

Avena fatua = assay: as above; details: application to foliage, application herbicide amount 320 g/ha
Description: as §1

Alopecurus myosuroides = assay: as above; details: application to foliage, application herbicide amount 320 g/ha
Description: as §1

Lolium multiflorum Lam. = assay: as above; details: application to foliage, application herbicide amount 320 g/ha
Description: as §1

Veronica persica = assay: as above; details: application to foliage, application herbicide amount 320 g/ha
Description: as §1

[1] = test system: Echinochloa crus-galli var. crus-galli; assay: as above; details: application to foliage, application herbicide amount 320 g/ha
Description: as §1

Chenopodium album = assay: as above; details: application to foliage, application herbicide amount 320 g/ha
Description: as §1

Apera spica-venti. = assay: as above; details: application to foliage, application herbicide amount 320 g/ha
Description: as §1

Stellaria media = assay: as above; details: application to foliage, application herbicide amount 320 g/ha
Description: as §1

Galium spurium = assay: as above; details: application to foliage, application herbicide amount 320 g/ha
Description: as §1

Setaria viridis = assay: as above; details: application to foliage, application herbicide amount 320 g/ha
Description: as §1

[2] = test system: transplanted Oryza sativa; assay: Test Example 1: effect on crop, application before weed generation in submerged conditions; details: Application herbicide amount 320 g/ha; Seventeenth Table
Description: (§2) [Test Example 1] Herbicidal Activity Test by Application Before Weed Generation in Submerged Conditions After alluvial soil was placed into 1/10000 are of Wagner pot, water was poured and mixed to form a submerged condition having a water depth of 4 cm. Seeds of Echinochloa oryzacola Vasing., Scirpus juncoides, and Monochoria vaginalis were sowed in a mixed manner in the above pot and thereafter 2.5 leaf stage Oryza sativa seedling was transplanted. On the day of sowing seeds, the emulsion agent containing the compound of the present invention prepared in accordance with Formulation Example 2 was diluted with water so as to be a predetermined herbicide amount and the diluted compound was applied to the surface of the water. The pot was placed in a greenhouse of 25° C. to 30° C. to grow plant. Three weeks after the herbicide application, effects on each plant were investigated in accordance with the following criteria. Criteria 5 Herbicidal ratio of 90% or more (almost completely withered) 4 Herbicidal ratio of 70% or more and less than 90% 3 Herbicidal ratio of 40% or more and less than 70% 2 Herbicidal ratio of 20% or more and less than 40% 1 Herbicidal ratio of 5% or more and less than 20% 0 Herbicidal ratio of 5% or less (almost no effect) A: Echinochloa oryzicola Vasing., B: Scirpus juncoides, C: Monochoria vaginalis, D: Leptochloa chinensis, E: Cyperus difformis, F: Digitaria ciliaris, G: Setaria viridis, H: Echinochloa crus-galli var. crus-galli, I: Avena fatua, J: Alopecurus myosuroides, K: Lolium multiflorum Lam., L: Apera spica-venti., M: Abutilon theophrasti, N: Amaranthus retroflexus, O: Chenopodium album, P: Stellaria media, Q: Galium spurium, R: Veronica persica, a: transplanted Oryza sativa, b: directly sowed Oryza sativa, c: Zea mays, d: Glycine max, e: Triticum aestivum, f: Beta vulgaris ssp. vulgaris, and g: Brassica campestris L. The application herbicide amount (g/ha) means an amount that a concentration is adjusted so that, when an application amount is converted into per hectare (1 ha), the herbicide is applied by the number of grams (g) of the described value.

Scirpus juncoides = assay: Test Example 1: herbicidal activity, application before weed generation in submerged conditions; details: Application herbicide amount 320 g/ha; Seventeenth Table
Description: as §2

Monochoria vaginalis = assay: as above; details: Application herbicide amount 320 g/ha; Seventeenth Table
Description: as §2

Triticum aestivum = assay: Test Example 4: effect on crop by application to foliage (diluvial soil, plastic box); details: application to foliage, application herbicide amount 320 g/ha
In short: (§3)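 Seeds sown in sterilized diluvial soil, covered ~1.5 cm, grown 14 days in greenhouse at 25° C. to 30° C. Emulsion formulation diluted in water to set rate (g/ha) and sprayed onto stems and leaves. Effect scored visually 3 weeks later on 0–5 scale (5 = ≥90% herbicidal ratio, 0 = ≤5%).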

Glycine max = assay: as above; details: application to foliage, application herbicide amount 320 g/ha
In short: as §3

[3] = test system: directly sowed Oryza sativa; assay: as above; details: application to foliage, application herbicide amount 320 g/ha
In short: as §3

Zea mays = assay: as above; details: application to foliage, application herbicide amount 320 g/ha
In short: as §3

Brassica campestris L. = assay: as above; details: application to foliage, application herbicide amount 320 g/ha
In short: as §3

[4] = test system: Beta vulgaris ssp. vulgaris; assay: as above; details: application to foliage, application herbicide amount 320 g/ha
In short: as §3

CC#Cc1nnc2c(C(=O)Nc3nnc(C)o3)ccc(C(F)(F)F)n12 [1-161]
N: herbicidal effect on Amaranthus retroflexus (Amaranthus retroflexus): 0 (Herbicidal ratio of 5% or less (almost no effect))
M: herbicidal effect on Abutilon theophrasti (Abutilon theophrasti): 1 (Herbicidal ratio of 5% or more and less than 20%)
F: herbicidal effect on Digitaria ciliaris (Digitaria ciliaris): 3 (Herbicidal ratio of 40% or more and less than 70%)
I: herbicidal effect on Avena fatua (Avena fatua): 0 (Herbicidal ratio of 5% or less (almost no effect))
J: herbicidal effect on Alopecurus myosuroides (Alopecurus myosuroides): 0 (Herbicidal ratio of 5% or less (almost no effect))
K: herbicidal effect on Lolium multiflorum Lam. (Lolium multiflorum Lam.): 0 (Herbicidal ratio of 5% or less (almost no effect))
R: herbicidal effect on Veronica persica (Veronica persica): 1 (Herbicidal ratio of 5% or more and less than 20%)
H: herbicidal effect on Echinochloa crus-galli var. crus-galli [1]: 3 (Herbicidal ratio of 40% or more and less than 70%)
O: herbicidal effect on Chenopodium album (Chenopodium album): 4 (Herbicidal ratio of 70% or more and less than 90%)
L: herbicidal effect on Apera spica-venti. (Apera spica-venti.): 0 (Herbicidal ratio of 5% or less (almost no effect))
P: herbicidal effect on Stellaria media (Stellaria media): 0 (Herbicidal ratio of 5% or less (almost no effect))
Q: herbicidal effect on Galium spurium (Galium spurium): 0 (Herbicidal ratio of 5% or less (almost no effect))
G: herbicidal effect on Setaria viridis (Setaria viridis): 0 (Herbicidal ratio of 5% or less (almost no effect))
a: transplanted Oryza sativa (effect on crop grade) [2]: 0 (Herbicidal ratio of 5% or less (almost no effect))
B: Scirpus juncoides (herbicidal effect grade) (Scirpus juncoides): 2 (Herbicidal ratio of 20% or more and less than 40%)
C: Monochoria vaginalis (herbicidal effect grade) (Monochoria vaginalis): 0 (Herbicidal ratio of 5% or less (almost no effect))
e: effect on crop, Triticum aestivum (Triticum aestivum): 0 (Herbicidal ratio of 5% or less (almost no effect))
d: effect on crop, Glycine max (Glycine max): 1 (Herbicidal ratio of 5% or more and less than 20%)
b: effect on crop, directly sowed Oryza sativa [3]: 0 (Herbicidal ratio of 5% or less (almost no effect))
c: effect on crop, Zea mays (Zea mays): 0 (Herbicidal ratio of 5% or less (almost no effect))
g: effect on crop, Brassica campestris L. (Brassica campestris L.): 0 (Herbicidal ratio of 5% or less (almost no effect))
f: effect on crop, Beta vulgaris ssp. vulgaris [4]: 1 (Herbicidal ratio of 5% or more and less than 20%)

Source: patent US9708314B2, “Heterocyclic amide compound” (NISSAN CHEMICAL INDUSTRIES, LTD., priority 2013, dated 2017)
